# Measured values: article PMC12615485, “New dengue virus inhibitors targeting NS3-NS5 interaction identified by in silico screening” (Frontiers in Microbiology, 2025)
# Like-named read-outs stand apart in the source and are kept apart here.
# Assays:
# [1] = biological target: NS3-NS5 interaction (NS3 f.l. binding to coated 6His-NS5_270–900) (Dengue virus type 2, UniProt P14340); test: ELISA-based NS3-NS5 interaction assay; set-up: species or system DENV-2; settings: for IC50: read-out: In vitro activity IC50; for reduction of NS3-NS5 interaction: at the tested concentrations; for inhibition at 100 µM: fixed concentration of 100 μM, compared with DMSO control
# Procedure: Nunc Maxisorp microplates (Thermo Fisher Scientific) were coated with 400 ng/well of 6His-NS5_270–900, or GST protein as a control, in PBS for 3 h at 37 °C and then blocked with 5% (wt/v) bovine serum albumin (BSA, Merck Life Science) in PBS overnight at 4 °C. Blocked wells were incubated at room temperature (RT) for 2 h with increasing amounts of NS3 f.l. or GST–NS3_172–618. 6His-NS5_270–900-coated plates were also incubated with increasing concentration of GST, as a control. After washing with PBS containing 0.3% Tween 20 (Fisher Scientific, Waltham, MA, United States), the NS3-NS5 interaction was detected by incubating the plates with the anti-NS3 monoclonal antibody (GT2811 clone, Genetex, Irvine, CA, United States) diluted 1:6,000 in PBS + 2% (v/v) FBS (Thermo Fisher Scientific) for 1 h at RT. The unbound primary antibody was removed by further washes with PBS + 0.3% Tween 20 and the secondary goat anti-mouse HRP-conjugated antibody (GenScript Biotech) at a dilution of 1:8,000 in PBS + 2% FBS was then added. After incubation for 1 h at RT and following washes, the colorimetric substrate 3,3′,5,5′-tetramethylbenzidine (TMB, SeraCare Life Sciences, Milford, MA, United States) was added to each well and absorbance was read at 450 nm by an ELISA plate reader (Tecan Infinite 200 PRO, Mannedorf, Switzerland).
# To test the inhibitory effect of compounds on NS3-NS5 interaction, 6His-NS5_270–900-coated wells were incubated with a fixed amount of NS3 f.l. (200 ng) along with increasing concentrations of test compounds or DMSO as a control. To exclude non-specific inhibition of compounds due to colloidal aggregation, the inhibitory activities of compounds were tested in the presence or the absence of 0.002% Triton X-100 (Fisher Scientific), a condition which reverses and prevents the colloidal formation of organic molecules ([McGovern et al., 2003]). All the compound concentrations were tested at least in duplicate.
# [2] = system: Vero cells; test: MTT cytotoxicity assay; settings: read-out: Cytotoxicity CC50; best analogues of hit 3, in-house synthesized hit 3 as control; MTT in Vero cells at 72 h
# [3] = system: DENV-2 NGC strain; test: Plaque reduction assay (PRA) in Vero cells; type: cell-based; settings: for EC50: PRA in Vero cells, read-out: Antiviral activity EC50; for SI (selectivity index): ratio between CC50 and EC50
# [4] = system: Vero cells
# [5] = MTT cytotoxicity assay; settings: African green monkey, Vero cells
# [6] = analogues of hit 3, in-house synthesized hit 3 as control, 50% inhibition of NS3-NS5 binding in ELISA
# [7] = best analogues of hit 3, in-house synthesized hit 3 as control, NGC strain
# [8] = selected hits, concentration that decreased the NS3-NS5 binding by 50% in ELISA
# [9] = Dengue virus, DENV2, Vero, selected hits, 50% inhibition of viral plaque formation, DENV-2
structure (smiles),measurement,setting,value
O=C(NNC(=S)Nc1ccc(Cl)cc1Cl)c1ccccc1O [Compound 51],IC50,[1]; [6],97.2 ± 24.3 µM
COc1ccc(C(=O)NNC(=S)Nc2ccccc2)cc1 [Compound 52],IC50,[1]; [6],167 ± 29 µM
O=C(NNC(=S)Nc1ccccc1)c1ccccc1O [Compound 53],IC50,[1]; [6],82.7 ± 21.5 µM
CCOC(=O)c1ccc(NC(=S)NNC(=O)c2ccccc2O)cc1 [Compound 54],IC50,[1]; [6],31 ± 18.3 µM
Cc1ccc(NC(=S)NNC(=O)c2ccc(C(F)(F)F)cc2)cc1 [Compound 55],IC50,[1]; [6],118 ± 23 µM
COc1ccccc1C(=O)NNC(=S)Nc1ccc(C)cc1 [Compound 56],IC50,[1]; [6],21.2 ± 3.4 µM
Cc1ccc(NC(=S)NNC(=O)c2ccccc2)cc1 [Compound 57],IC50,[1]; [6],55.6 ± 22.7 µM
Cc1ccc(NC(=S)NNC(=O)c2ccccc2F)cc1 [Compound 58],IC50,[1]; [6],21.3 ± 7.9 µM
Cc1ccc(NC(=S)NNC(=O)c2ccccc2C)cc1 [Compound 59],IC50,[1]; [6],29 ± 6.9 µM
Cc1ccc(NC(=S)NNC(=O)c2ccc(C)cc2)cc1 [Compound 60],IC50,[1]; [6],149 ± 21 µM
Cc1ccc(NC(=S)NNC(=O)c2cccc(O)c2)cc1 [Compound 61],IC50,[1]; [6],> 200 µM
same,reduction of NS3-NS5 interaction,[1],< 50%
Cc1ccc(NC(=S)NNC(=O)c2ccc(O)cc2)cc1 [Compound 62],IC50,[1]; [6],> 200 µM
same,reduction of NS3-NS5 interaction,[1],< 50%
Cc1ccc(NC(=S)NNC(=O)c2ccc(O)cc2O)cc1 [Compound 63],IC50,[1]; [6],172 ± 31 µM
Cc1ccc(NC(=S)NNC(=O)c2ccccn2)cc1 [Compound 64],CC50,[2],39.6 ± 10.2 µM
same,EC50,[3]; [7],2.1 ± 1.6 µM
Cc1ccc(NC(=S)NNC(=O)c2cccs2)cc1 [Compound 65],IC50,[1]; [6],64.9 ± 19.5 µM
CN(C)c1ccc(NC(=S)NNC(=O)c2ccccc2O)cc1 [Compound 66],IC50,[1]; [6],12.5 ± 4.1 µM
O=C(NNC(=S)Nc1ccc([N+](=O)[O-])cc1)c1ccccc1O [Compound 67],IC50,[1]; [6],> 200 µM
same,reduction of NS3-NS5 interaction,[1],< 50%
Cc1ccc(NC(=S)NNC(=O)c2ccco2)cc1 [Compound 68],IC50,[1]; [6],20.1 ± 7.5 µM
CN(C)c1ccc(NC(=S)NNC(=O)c2ccccn2)cc1 [Compound 69],fold lower IC50 than hit 3,[1]; IC50 of 1.0 μM versus 15.6 μM,15 fold
same,CC50,[4],72 ± 17.2 µM
same,EC50,[3]; [7],12.4 ± 5.8 µM
CN(C)c1ccc(NC(=S)NNC(=O)c2cccs2)cc1 [Compound 70],IC50,[1]; [6],25.3 ± 5.4 µM
CN(C)c1ccc(NC(=S)NNC(=O)c2ccco2)cc1 [Compound 71],IC50,[1]; [6],11.6 ± 2.6 µM
Cc1ccc(NC(=S)NNC(=O)c2ccc(C(C)(C)C)cc2)cc1 [Compound 72],CC50,[4],211 ± 20 µM
same,EC50,[3]; [7],2.8 ± 1.9 µM
Cc1ccc(NC(=S)NNC(=O)c2ccc(C(F)(F)F)cc2C(F)(F)F)cc1 [Compound 73],IC50,[1]; [6],> 200 µM
same,reduction of NS3-NS5 interaction,[1],< 50%
COc1ccc(NC(=S)NNC(=O)c2ccccc2O)cc1 [Compound 74],IC50,[1]; [6],> 200 µM
same,reduction of NS3-NS5 interaction,[1],< 50%
N#Cc1ccc(NC(=S)NNC(=O)c2ccccc2O)cc1 [Compound 75],IC50,[1]; [6],40.3 ± 8.3 µM
CC(C)(C)c1ccc(NC(=S)NNC(=O)c2ccccc2O)cc1 [Compound 76],IC50,[1]; [6],6.3 ± 2.2 µM
Cc1ccc(NC(=S)NNC(=O)c2ccc(C#N)cc2)cc1 [Compound 77],IC50,[1]; [6],> 200 µM
same,reduction of NS3-NS5 interaction,[1],< 50%
Cc1ccc(Nc2nc(-c3ccccc3O)cs2)cc1 [Compound 78],IC50,[1]; [6],> 200 µM
same,reduction of NS3-NS5 interaction,[1],< 50%
Cc1ccc(NC(=O)NNC(=O)c2ccccc2O)cc1 [Compound 79],IC50,[1]; [6],13.9 ± 6.5 µM
O=C(NCc1nc2ccccc2[nH]1)c1ccc2[nH]nnc2c1 [Hit 1],inhibition at 100 µM,[1],≥ 50%
same,IC50,[1]; [8],85.9 ± 14.5 µM
same,CC50 at 72 h,[5],> 250 µM
same,EC50,[3]; [9],> 100 µM
same,SI (selectivity index),[3]; selected hits,>3
Cc1ccc(C(=O)Nc2cc(-c3cccc(F)c3F)n[nH]2)c(=O)[nH]1 [Hit 4],inhibition at 100 µM,[1],≥ 50%
same,IC50,[1]; [8],18.7 ± 2.1 µM
same,CC50 at 72 h,[5],12.7 ± 4 µM
same,EC50,[3]; [9],> 10 µM
same,SI (selectivity index),[3]; selected hits,1
Cc1nc(NC(=O)c2ccc(C(N)=O)cc2)sc1SCC#N [Hit 6],inhibition at 100 µM,[1],≥ 50%
same,IC50,[1]; [8],51.4 ± 10.3 µM
same,CC50 at 72 h,[5],> 250 µM
same,EC50,[3]; [9],98.8 ± 10.4 µM
same,SI (selectivity index),[3]; selected hits,>3
N=c1c2cnn(-c3ccccc3)c2ncn1NC(=S)Nc1ccccc1 [Hit 15],inhibition at 100 µM,[1],≥ 50%
same,IC50,[1]; [8],123 ± 16 µM
same,CC50 at 72 h,[5],> 250 µM
same,EC50,[3]; [9],> 100 µM
same,SI (selectivity index),[3]; selected hits,>3
NC(=O)COc1ccc(CNC(=O)Nc2ccc(Cl)cc2)cc1 [Hit 29],inhibition at 100 µM,[1],≥ 50%
same,IC50,[1]; [8],142 ± 26 µM
same,CC50 at 72 h,[5],35.7 ± 4.9 µM
same,EC50,[3]; [9],34.3 ± 9.4 µM
same,SI (selectivity index),[3]; selected hits,1
O=C(NCc1ncc(-c2ccccc2)[nH]1)Nc1ccncc1F [Hit 30],inhibition at 100 µM,[1],≥ 50%
same,IC50,[1]; [8],44.6 ± 8.1 µM
same,CC50 at 72 h,[5],> 250 µM
same,EC50,[3]; [9],24.6 ± 5.9 µM
O=C(CCc1ccccn1)Nc1ccc2[nH]nnc2c1 [Hit 44],inhibition at 100 µM,[1],≥ 50%
same,IC50,[1]; [8],78.5 ± 16.4 µM
same,CC50 at 72 h,[5],> 100 µM
same,EC50,[3]; [9],97.4 ± 12.6 µM
same,SI (selectivity index),[3]; selected hits,>1
N#Cc1nc2c(-c3nc4ccccc4[nH]3)c(N)n(Cc3ccco3)c2nc1C#N [Hit 47],inhibition at 100 µM,[1],≥ 50%
same,IC50,[1]; [8],16.9 ± 2.5 µM
same,CC50 at 72 h,[5],> 250 µM
same,EC50,[3]; [9],53.5 ± 6.9 µM
same,SI (selectivity index),[3]; selected hits,>5
N#Cc1cn[nH]c1NCc1ccc(OCc2ccccc2)cc1O [Hit 50],inhibition at 100 µM,[1],≥ 50%
same,IC50,[1]; [8],32 ± 6.7 µM
same,CC50 at 72 h,[5],> 250 µM
same,EC50,[3]; [9],13.4 ± 1.8 µM
same,SI (selectivity index),[3]; selected hits,>19
"CC(C)C[C@H](NC(=O)[C@H](C)NC(=O)[C@H](CC(C)C)NC(=O)[C@@H](NC(=O)[C@H](CCC(N)=O)NC(=O)[C@@H](NC(=O)[C@H](CCC(=O)O)NC(=O)[C@H](CCC(=O)O)NC(=O)CNC(=O)[C@H](CCC(=O)O)NC(=O)[C@H](CCCCN)NC(=O)[C@H](Cc1c[nH]c2ccccc12)NC(=O)[C@H](CCC(=O)O)NC(=O)CNC(=O)[C@@H](N)CCC(=O)O)C(C)C)C(C)C)C(=O)O [NS3_86–100 peptide, reference compound]",inhibitory effect on NS3-NS5 interaction,[1]; up to 480 μM,no inhibitory effect
